The values below come from ChEMBL document CHEMBL1139978, “Synthesis and radiopharmacological characterization of [11C]AL-438 as a nonsteroidal ligand for imaging brain glucocorticoid receptors” (Bioorg Med Chem Lett, 2007).

By EC50 is commonly meant the concentration needed to bring the measured effect to its halfway point.

In one assay the target is T1, Glucocorticoid receptor (Rattus norvegicus, UniProt P06536).
T1 sequence (P06536 whole entry): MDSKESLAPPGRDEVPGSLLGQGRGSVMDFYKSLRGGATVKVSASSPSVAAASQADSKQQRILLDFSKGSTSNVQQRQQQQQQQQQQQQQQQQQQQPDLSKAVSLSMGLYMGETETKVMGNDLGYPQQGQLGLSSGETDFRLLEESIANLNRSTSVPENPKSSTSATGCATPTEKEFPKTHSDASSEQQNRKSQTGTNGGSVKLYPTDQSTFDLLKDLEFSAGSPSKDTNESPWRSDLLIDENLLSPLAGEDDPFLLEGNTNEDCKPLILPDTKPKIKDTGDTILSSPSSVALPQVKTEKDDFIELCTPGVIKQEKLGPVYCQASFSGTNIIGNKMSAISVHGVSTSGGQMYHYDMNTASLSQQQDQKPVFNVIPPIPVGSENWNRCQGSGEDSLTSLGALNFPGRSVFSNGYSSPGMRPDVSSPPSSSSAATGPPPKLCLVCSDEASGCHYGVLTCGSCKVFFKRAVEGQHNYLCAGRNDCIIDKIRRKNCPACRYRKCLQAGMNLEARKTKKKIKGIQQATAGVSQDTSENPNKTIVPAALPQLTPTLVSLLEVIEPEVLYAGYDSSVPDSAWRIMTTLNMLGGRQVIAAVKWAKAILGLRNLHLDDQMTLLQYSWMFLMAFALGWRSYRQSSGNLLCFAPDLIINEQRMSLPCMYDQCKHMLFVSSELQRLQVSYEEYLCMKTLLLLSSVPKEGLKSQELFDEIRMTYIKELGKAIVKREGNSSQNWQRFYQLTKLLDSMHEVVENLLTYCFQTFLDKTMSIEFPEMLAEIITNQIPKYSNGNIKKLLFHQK
The assay can be described thus: Binding affinity to rat glucocorticoid receptor.

A further assay deals with Progesterone receptor (Rattus norvegicus, UniProt Q63449). Nature of the assay: Binding affinity to progesterone receptor.
Progesterone receptor, sequence (Q63449 whole entry): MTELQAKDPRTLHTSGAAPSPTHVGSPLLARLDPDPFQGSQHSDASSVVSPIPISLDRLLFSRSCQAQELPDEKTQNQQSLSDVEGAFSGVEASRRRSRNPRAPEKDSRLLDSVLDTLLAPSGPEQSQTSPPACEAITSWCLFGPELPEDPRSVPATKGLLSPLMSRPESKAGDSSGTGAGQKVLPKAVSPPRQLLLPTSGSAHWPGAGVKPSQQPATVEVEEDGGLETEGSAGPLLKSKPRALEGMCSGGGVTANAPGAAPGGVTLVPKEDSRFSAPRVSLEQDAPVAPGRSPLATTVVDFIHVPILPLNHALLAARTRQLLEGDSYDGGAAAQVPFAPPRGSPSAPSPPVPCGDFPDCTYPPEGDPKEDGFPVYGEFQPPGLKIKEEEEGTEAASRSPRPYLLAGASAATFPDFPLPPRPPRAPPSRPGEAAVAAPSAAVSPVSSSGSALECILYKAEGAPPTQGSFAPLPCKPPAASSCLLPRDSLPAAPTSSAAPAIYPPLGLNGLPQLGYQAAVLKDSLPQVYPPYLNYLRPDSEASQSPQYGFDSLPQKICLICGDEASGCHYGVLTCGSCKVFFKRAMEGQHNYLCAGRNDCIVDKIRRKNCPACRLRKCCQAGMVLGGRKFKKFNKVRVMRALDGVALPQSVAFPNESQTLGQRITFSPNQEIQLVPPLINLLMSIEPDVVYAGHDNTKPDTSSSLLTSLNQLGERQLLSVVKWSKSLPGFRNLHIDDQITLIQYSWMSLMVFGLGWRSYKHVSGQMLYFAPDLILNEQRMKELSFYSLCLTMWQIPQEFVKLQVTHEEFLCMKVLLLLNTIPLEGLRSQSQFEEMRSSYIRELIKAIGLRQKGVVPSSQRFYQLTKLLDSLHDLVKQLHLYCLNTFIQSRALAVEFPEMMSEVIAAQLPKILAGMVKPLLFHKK

For `C=CCC1Oc2cccc(OC)c2-c2ccc3c(c21)C(C)=CC(C)(C)N3` (configuration not stated) [AL-43], the figures for the concentration for a half-maximal effect (EC50) at Glucocorticoid receptor and on Progesterone receptor were 7.94 nM and 126 nM, respectively.
